Measurements from ChEMBL document CHEMBL4828709, “Discovery of 2,4-pyrimidinediamine derivatives as potent dual inhibitors of ALK and HDAC” (Eur J Med Chem, 2021).

How the values were obtained:
Histone deacetylase 1 [1] = molecular target: T1, Histone deacetylase 1 (Homo sapiens, UniProt Q13547); conditions: Sf9, dose 10.0 nM, time 15.0 min
Histone deacetylase 1 [2] = molecular target: T1, Histone deacetylase 1; conditions: Sf9, dose 100.0 nM, time 15.0 min
[3] = molecular target: T2, ALK tyrosine kinase receptor (Homo sapiens, UniProt Q9UM73); assay: Inhibition of ALK (unknown origin) at 10 nM preincubated for 10 mins followed by addition of substrate and ATP for 25 mins by caliper EZ reader method; conditions: time 35.0 min
[4] = molecular target: T2, ALK tyrosine kinase receptor; assay: Inhibition of ALK (unknown origin) at 100 nM preincubated for 10 mins followed by addition of substrate and ATP for 25 mins by caliper EZ reader method; conditions: time 35.0 min

T1 sequence (Q13547 whole entry): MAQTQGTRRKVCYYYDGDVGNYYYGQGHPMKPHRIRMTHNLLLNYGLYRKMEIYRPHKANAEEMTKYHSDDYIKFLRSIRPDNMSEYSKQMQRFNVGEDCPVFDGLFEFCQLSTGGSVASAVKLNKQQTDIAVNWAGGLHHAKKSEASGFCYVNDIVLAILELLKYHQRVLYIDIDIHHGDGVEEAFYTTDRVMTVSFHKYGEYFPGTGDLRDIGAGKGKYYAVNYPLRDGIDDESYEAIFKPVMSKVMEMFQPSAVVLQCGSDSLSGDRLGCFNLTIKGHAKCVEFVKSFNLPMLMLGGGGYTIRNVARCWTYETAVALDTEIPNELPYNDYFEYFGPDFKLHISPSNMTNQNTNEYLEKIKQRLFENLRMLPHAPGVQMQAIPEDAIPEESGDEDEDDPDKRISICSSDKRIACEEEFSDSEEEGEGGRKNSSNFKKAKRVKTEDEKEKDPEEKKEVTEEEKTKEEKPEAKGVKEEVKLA
T2 sequence (Q9UM73 19-1620 limits assumed): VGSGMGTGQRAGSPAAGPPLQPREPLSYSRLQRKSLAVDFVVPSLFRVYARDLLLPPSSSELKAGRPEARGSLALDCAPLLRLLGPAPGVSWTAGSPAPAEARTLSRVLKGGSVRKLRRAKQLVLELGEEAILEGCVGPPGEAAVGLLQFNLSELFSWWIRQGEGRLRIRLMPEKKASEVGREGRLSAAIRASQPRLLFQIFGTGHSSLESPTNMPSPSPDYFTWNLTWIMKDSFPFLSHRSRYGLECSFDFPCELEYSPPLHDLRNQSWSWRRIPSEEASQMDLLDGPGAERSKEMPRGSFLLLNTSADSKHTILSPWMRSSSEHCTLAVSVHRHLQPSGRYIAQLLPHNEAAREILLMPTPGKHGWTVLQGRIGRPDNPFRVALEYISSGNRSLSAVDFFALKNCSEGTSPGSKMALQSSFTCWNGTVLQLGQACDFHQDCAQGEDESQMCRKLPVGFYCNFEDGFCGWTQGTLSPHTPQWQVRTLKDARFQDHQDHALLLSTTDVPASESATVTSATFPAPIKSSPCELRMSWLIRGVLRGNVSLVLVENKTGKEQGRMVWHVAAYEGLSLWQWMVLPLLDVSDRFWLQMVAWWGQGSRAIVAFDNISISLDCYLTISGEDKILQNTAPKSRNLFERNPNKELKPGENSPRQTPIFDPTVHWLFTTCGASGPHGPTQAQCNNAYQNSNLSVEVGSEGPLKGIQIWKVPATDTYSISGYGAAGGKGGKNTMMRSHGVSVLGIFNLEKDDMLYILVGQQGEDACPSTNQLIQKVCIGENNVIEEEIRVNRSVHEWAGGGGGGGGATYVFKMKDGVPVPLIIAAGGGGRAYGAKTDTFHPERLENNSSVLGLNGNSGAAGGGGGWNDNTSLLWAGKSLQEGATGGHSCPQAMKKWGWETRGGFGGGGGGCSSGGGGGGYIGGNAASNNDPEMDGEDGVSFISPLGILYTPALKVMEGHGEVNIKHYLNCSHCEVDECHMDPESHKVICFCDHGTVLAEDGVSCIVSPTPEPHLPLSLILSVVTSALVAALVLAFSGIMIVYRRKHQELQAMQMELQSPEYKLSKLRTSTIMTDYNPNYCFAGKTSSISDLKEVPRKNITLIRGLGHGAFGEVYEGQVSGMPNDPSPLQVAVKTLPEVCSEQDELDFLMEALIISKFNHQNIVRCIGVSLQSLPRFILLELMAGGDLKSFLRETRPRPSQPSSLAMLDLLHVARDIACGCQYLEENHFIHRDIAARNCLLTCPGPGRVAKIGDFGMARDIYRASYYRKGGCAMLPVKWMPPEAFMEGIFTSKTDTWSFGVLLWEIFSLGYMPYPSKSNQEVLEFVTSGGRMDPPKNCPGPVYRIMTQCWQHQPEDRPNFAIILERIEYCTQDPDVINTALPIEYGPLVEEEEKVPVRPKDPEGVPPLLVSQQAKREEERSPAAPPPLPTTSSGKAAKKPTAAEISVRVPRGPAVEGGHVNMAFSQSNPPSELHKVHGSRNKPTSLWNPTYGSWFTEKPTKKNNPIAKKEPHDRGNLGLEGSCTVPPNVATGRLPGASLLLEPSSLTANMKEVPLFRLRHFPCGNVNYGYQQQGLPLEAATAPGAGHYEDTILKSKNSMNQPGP

inhibition (Histone deacetylase 1 [1]) [%]	inhibition (Histone deacetylase 1 [2]) [%]	inhibition [3] [%]	inhibition [4] [%]	Compound
4	17	87.6	98.5	CC(C)S(=O)(=O)c1ccccc1Nc1nc(Nc2ccc(NC(=O)CCCC(=O)NO)cc2)ncc1Cl
41	84	82.6	96.6	CC(C)S(=O)(=O)c1ccccc1Nc1nc(Nc2cccc(C(=O)NCCCCCCC(=O)NO)c2)ncc1Cl
86	97	7.2	30.1	Cc1ccc(Nc2nc(Nc3ccc(NC(=O)CCCCCCC(=O)NO)cc3)ncc2Cl)cc1
8	39	76.9	98.5	Cc1ccc(Nc2ncc(Cl)c(Nc3ccccc3S(=O)(=O)C(C)C)n2)cc1NC(=O)CCCCC(=O)NO
83	97	1.2	20	COc1cccc(Nc2nc(Nc3ccc(NC(=O)CCCCCCC(=O)NO)cc3)ncc2Cl)c1
-1	4	81	99.1	CC(C)S(=O)(=O)c1ccccc1Nc1nc(Nc2cccc(C(=O)NCCC(=O)NO)c2)ncc1Cl
23	65	81	97.7	CC(C)S(=O)(=O)c1ccccc1Nc1nc(Nc2cccc(C(=O)NCCCCC(=O)NO)c2)ncc1Cl
26	74	99	101	COc1cc(Nc2ncc(Cl)c(Nc3ccccc3S(=O)(=O)C(C)C)n2)ccc1C(=O)NCCCCCC(=O)NO
-1	3	86.7	97.3	CC(C)S(=O)(=O)c1ccccc1Nc1nc(Nc2ccc(C(=O)NCCC(=O)NO)cc2)ncc1Cl
		-0.7	4.9	COc1ccc(C)c(Nc2nc(Nc3ccc(NC(=O)CCCCCCC(=O)NO)cc3)ncc2Cl)c1
0.1		81.1		CC(C)S(=O)(=O)c1ccccc1Nc1nc(Nc2ccc(C(=O)NO)cc2)ncc1Cl
65	94	3.1	17.6	COc1ccc(Nc2nc(Nc3ccc(NC(=O)CCCCCCC(=O)NO)cc3)ncc2Cl)cc1OC
0	3	71.6	101	CC(C)S(=O)(=O)c1ccccc1Nc1nc(Nc2ccc(/C=C/C(=O)NO)cc2)ncc1Cl
45	86	97.3	98.5	COc1cc(C(=O)NCCCCCC(=O)NO)ccc1Nc1ncc(Cl)c(Nc2ccccc2S(=O)(=O)C(C)C)n1
52	90	86.5	98.8	CC(C)S(=O)(=O)c1ccccc1Nc1nc(Nc2ccc(NC(=O)CCCCCC(=O)NO)cc2)ncc1Cl
56	89	4.9	7.6	COc1cccc(Nc2nc(Nc3ccc(NC(=O)CCCCCCC(=O)NO)cc3)ncc2C(F)(F)F)c1
-10	-7	92.1	98.2	CC(C)S(=O)(=O)c1ccccc1Nc1nc(Nc2ccc(NC(=O)CC(=O)NO)cc2)ncc1Cl
-8	20	84.7	99	CC(C)S(=O)(=O)c1ccccc1Nc1nc(Nc2ccc(NC(=O)CCCCC(=O)NO)cc2)ncc1Cl
-2	4	91.2	97.9	CC(C)S(=O)(=O)c1ccccc1Nc1nc(Nc2ccc(C(=O)NCCCC(=O)NO)cc2)ncc1Cl
10	41	87.2	98	CC(C)S(=O)(=O)c1ccccc1Nc1nc(Nc2cccc(NC(=O)CCCCC(=O)NO)c2)ncc1Cl
58	96	93.1	97.3	Cc1cc(C(=O)NCCCCCC(=O)NO)ccc1Nc1ncc(Cl)c(Nc2ccccc2S(=O)(=O)C(C)C)n1

inhibition (Histone deacetylase 1 [1]) [%]	inhibition (Histone deacetylase 1 [2]) [%]	inhibition [3] [%]	inhibition [4] [%]	Compound
55	86	89.4	98	CC(C)S(=O)(=O)c1ccccc1Nc1nc(Nc2cccc(NC(=O)CCCCCC(=O)NO)c2)ncc1Cl
70	94	66.3	96	CC(C)S(=O)(=O)c1ccccc1Nc1nc(Nc2ccc(NC(=O)CCCCCCC(=O)NO)cc2)ncc1F
68	91	60.4	94.9	COc1cnc(Nc2ccc(NC(=O)CCCCCCC(=O)NO)cc2)nc1Nc1ccccc1S(=O)(=O)C(C)C
35	84	83.2	97.3	CC(C)S(=O)(=O)c1ccccc1Nc1nc(Nc2cccc(C(=O)NCCCCCC(=O)NO)c2)ncc1Cl
45	93	87.7	97.8	CC(C)S(=O)(=O)c1ccccc1Nc1nc(Nc2ccc(C(=O)NCCCCCC(=O)NO)c(Cl)c2)ncc1Cl
-2				CC(C)S(=O)(=O)c1ccccc1Nc1nc(Nc2ccc(NC(=O)CCC(=O)NO)cc2)ncc1Cl
4	44	85.7	98	CC(C)S(=O)(=O)c1ccccc1Nc1nc(Nc2cccc(C(=O)NCCCC(=O)NO)c2)ncc1Cl
67	88	0.2	25	O=C(CCCCCCC(=O)Nc1ccc(Nc2ncc(Cl)c(Nc3ccccc3Br)n2)cc1)NO
-3				CC(C)S(=O)(=O)c1ccccc1Nc1nc(Nc2cccc(C(=O)NO)c2)ncc1Cl
38	83	87	98.1	CC(C)S(=O)(=O)c1ccccc1Nc1nc(Nc2cccc(NC(=O)CCCC(=O)NO)c2)ncc1Cl
35	78	98.1	101	Cc1cc(Nc2ncc(Cl)c(Nc3ccccc3S(=O)(=O)C(C)C)n2)ccc1C(=O)NCCCCCCC(=O)NO
24	67	70.3	100	CC(C)S(=O)(=O)c1ccccc1Nc1nc(Nc2ccc(C(=O)NCCCCCCC(=O)NO)c(Cl)c2)ncc1Cl
48	93	97.8	102	Cc1cc(Nc2ncc(Cl)c(Nc3ccccc3S(=O)(=O)C(C)C)n2)ccc1C(=O)NCCCCCC(=O)NO
63	93	83.5	97.9	Cc1cnc(Nc2ccc(NC(=O)CCCCCCC(=O)NO)cc2)nc1Nc1ccccc1S(=O)(=O)C(C)C
84	99	4.9	36.9	O=C(CCCCCCC(=O)Nc1ccc(Nc2ncc(Cl)c(Nc3ccccc3)n2)cc1)NO
55	101	89.4	98.1	CC(C)S(=O)(=O)c1ccccc1Nc1nc(Nc2ccc(C(=O)NCCCCCC(=O)NO)cc2)ncc1Cl
		0.2	4.9	Cc1cccc(Nc2nc(Nc3ccc(NC(=O)CCCCCCC(=O)NO)cc3)ncc2Cl)c1
91	99	1.2	27.8	Cc1ccccc1Nc1nc(Nc2ccc(NC(=O)CCCCCCC(=O)NO)cc2)ncc1Cl
67	90	3.1	21.2	O=C(CCCCCCC(=O)Nc1ccc(Nc2ncc(Cl)c(Nc3ccccc3Cl)n2)cc1)NO
7	49	86.8	98.5	Cc1c(Nc2ncc(Cl)c(Nc3ccccc3S(=O)(=O)C(C)C)n2)cccc1C(=O)NCCCCCC(=O)NO
8	31	85.2	98.8	CC(C)S(=O)(=O)c1ccccc1Nc1nc(Nc2ccc(C(=O)NCCCCC(=O)NO)cc2)ncc1Cl
